Reference: patent publication US8202879B2, “Quinazoline derivatives having tyrosine kinase inhibitory activity” (Shionogi & Co., Ltd., priority 2005, dated 2012)
Counter-ions that a name gives are not always drawn. Like-named read-outs stand apart in the source and are kept apart here.

Key:
BT-474 = test: In vitro cell proliferation inhibition, WST assay; assay type: cell-based, human; conditions: BT-474 cells, cultured for 3 days, read-out: BT-474 (nM) proliferation inhibitory activity (IC50 value)
Method: Test of In Vitro Cell Proliferation Inhibition of Test Compound
As a human-derived cancer cell strain, BT-474 was used. Cells were all cultured in a 37° C., 5% CO2 incubator in a medium in which 10% bovine fetal serum (ICN) and 50 units ml penicillin/60 μg/ml streptomycin solution (GIBCO) were added to Dulbecco's Modified Essential Medium (DMEM, Nacalai Tesque, Inc).

EGFR = molecular target: T1, EGFR (Homo sapiens, UniProt P00533); test: Enzyme inhibitory activity on EGFR (time resolution fluorescence, biotinylated poly-Glu-Tyr substrate); assay type: biochemical
T1 construct: purchased Carna Biosciences, Inc; host or cells: insect cell expression system
T1 sequence (P00533 25-1210): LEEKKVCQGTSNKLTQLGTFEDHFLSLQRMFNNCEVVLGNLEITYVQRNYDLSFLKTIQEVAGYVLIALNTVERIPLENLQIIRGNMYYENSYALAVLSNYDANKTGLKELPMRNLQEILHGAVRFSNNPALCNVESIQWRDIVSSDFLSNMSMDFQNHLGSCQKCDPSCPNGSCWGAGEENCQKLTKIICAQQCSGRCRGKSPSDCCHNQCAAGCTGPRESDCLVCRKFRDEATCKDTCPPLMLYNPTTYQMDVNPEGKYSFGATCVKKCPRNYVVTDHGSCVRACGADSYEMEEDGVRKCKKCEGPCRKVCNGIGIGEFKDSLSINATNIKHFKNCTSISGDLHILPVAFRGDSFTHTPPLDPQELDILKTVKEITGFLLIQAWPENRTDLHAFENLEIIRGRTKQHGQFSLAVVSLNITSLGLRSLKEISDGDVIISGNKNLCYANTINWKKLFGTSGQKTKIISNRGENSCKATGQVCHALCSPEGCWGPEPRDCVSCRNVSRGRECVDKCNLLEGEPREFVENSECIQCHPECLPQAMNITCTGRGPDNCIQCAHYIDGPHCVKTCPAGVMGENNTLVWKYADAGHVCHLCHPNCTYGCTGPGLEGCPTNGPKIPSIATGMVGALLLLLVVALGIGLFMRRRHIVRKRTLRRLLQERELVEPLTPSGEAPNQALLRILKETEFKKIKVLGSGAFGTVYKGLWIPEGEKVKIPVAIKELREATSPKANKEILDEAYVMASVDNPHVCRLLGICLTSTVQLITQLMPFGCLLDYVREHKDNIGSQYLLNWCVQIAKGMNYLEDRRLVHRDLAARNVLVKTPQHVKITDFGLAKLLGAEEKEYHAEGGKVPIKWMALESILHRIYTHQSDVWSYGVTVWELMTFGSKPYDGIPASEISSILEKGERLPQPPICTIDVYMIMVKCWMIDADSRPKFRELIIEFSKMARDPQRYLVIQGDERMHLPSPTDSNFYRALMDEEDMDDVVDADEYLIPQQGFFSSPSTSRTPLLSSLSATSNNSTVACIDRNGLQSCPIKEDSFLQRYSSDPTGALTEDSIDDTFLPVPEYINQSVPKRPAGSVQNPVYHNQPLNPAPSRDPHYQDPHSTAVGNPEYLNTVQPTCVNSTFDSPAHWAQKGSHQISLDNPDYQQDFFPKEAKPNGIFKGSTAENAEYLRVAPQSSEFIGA
In short: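 Insect-cell-expressed EGFR phosphorylated biotinylated poly-Glu-Tyr (4:1) for 60 min at room temperature in TBS with MgCl2, MnCl2, Na3VO4 and BSA. Enzyme 250 ng/ml, substrate 3.125 μg/ml and ATP 125 μM as working solutions. EDTA stop; Eu anti-phosphotyrosine/streptavidin-XL time-resolved fluorescence read; 10-point 4-fold dilutions.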

HER2 = molecular target: T2, HER2 (Homo sapiens, UniProt P04626); test: Enzyme inhibitory activity on HER2 (time resolution fluorescence, biotinylated poly-Glu-Tyr substrate); assay type: biochemical
T2 construct: purchased Carna Biosciences, Inc; host or cells: insect cell expression system
T2 sequence (P04626 23-1255): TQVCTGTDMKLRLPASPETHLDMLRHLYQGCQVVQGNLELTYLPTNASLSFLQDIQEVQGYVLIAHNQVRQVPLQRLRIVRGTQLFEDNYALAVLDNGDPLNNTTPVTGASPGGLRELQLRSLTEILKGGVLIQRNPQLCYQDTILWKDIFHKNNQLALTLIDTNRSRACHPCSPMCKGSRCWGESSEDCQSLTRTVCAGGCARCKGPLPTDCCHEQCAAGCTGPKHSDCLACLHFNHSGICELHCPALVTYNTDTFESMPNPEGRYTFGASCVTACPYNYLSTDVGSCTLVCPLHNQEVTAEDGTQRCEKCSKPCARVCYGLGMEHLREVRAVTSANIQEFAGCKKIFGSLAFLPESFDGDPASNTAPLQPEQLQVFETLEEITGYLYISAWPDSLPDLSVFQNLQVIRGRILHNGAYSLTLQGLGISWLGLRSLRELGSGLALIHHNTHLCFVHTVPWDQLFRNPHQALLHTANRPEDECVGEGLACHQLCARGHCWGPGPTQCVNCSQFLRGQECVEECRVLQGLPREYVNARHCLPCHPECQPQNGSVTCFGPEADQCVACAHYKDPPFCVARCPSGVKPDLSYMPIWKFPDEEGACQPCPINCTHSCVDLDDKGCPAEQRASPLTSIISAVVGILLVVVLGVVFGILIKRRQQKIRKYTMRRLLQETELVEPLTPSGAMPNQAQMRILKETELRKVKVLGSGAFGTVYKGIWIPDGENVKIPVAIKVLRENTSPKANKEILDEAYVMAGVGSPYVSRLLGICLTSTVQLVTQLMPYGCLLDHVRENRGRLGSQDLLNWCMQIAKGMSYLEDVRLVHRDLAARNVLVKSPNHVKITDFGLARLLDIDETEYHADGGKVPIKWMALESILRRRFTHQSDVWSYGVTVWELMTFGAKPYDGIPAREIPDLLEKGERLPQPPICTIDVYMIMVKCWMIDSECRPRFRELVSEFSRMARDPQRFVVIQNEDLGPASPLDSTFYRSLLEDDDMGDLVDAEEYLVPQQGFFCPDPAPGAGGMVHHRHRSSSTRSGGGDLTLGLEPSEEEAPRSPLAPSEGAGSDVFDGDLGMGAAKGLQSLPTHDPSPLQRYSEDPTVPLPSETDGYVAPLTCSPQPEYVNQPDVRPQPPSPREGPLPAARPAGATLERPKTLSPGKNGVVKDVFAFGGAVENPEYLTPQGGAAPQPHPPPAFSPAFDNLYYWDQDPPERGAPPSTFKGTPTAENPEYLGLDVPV
In short: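 Insect-cell-expressed HER2 (1000 ng/ml working stock) with biotinylated poly-Glu-Tyr (4:1; 3.125 μg/ml stock) and ATP (290 μM solution) in TBS with MgCl2, MnCl2, Na3VO4 and BSA, 60 min at room temperature. 10-point 4-fold dilutions from a 1 mM top solution. Phosphotyrosine detected by TR-FRET with Eu-antibody and streptavidin-XL.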

[1] = enzyme reaction at room temperature for 60 minutes
[2] = EGFR purified from insect cell expression system, ATP solution 125 μM, room temperature, 60 minutes
[3] = HER2 purified from insect cell expression system, ATP solution 290 μM, room temperature, 60 minutes

SMILES | IC50 (BT-474; Homo sapiens, BT-474, 72 h) [nM] | IC50 (EGFR; [1]) [nM] | IC50 (HER2; [1]) [nM] | IC50 (BT-474) [nM] | IC50 (EGFR; [2]) [nM] | IC50 (HER2; [3]) [nM]
CC#C/C(=N\OCCN(C)CCO)c1ccc2ncnc(Nc3ccc(OCc4ccccn4)c(Cl)c3)c2c1 [VIII-145] | 21 | 9.4 | 8.9 |  |  | 
CC#C/C(=N\OCCNC1CCCCC1)c1ccc2ncnc(Nc3ccc(OCc4cccc(F)c4)c(Cl)c3)c2c1 [VIII-28] |  |  |  | 72 | 162 | 167
CC#C/C(=N\OCCNCCNC(C)=O)c1ccc2ncnc(Nc3ccc(OCc4cccc(F)c4)c(Cl)c3)c2c1 [VIII-47] |  |  |  | 4 | 12 | 23
CC#C/C(=N\OC[C@@H]1COCCN1)c1ccc2ncnc(Nc3ccc(S(=O)(=O)c4ccccc4)cc3)c2c1 [VIII-207] | 68 | 21 | 17 |  |  | 
CC#C/C(=N\OCCNC1CC1)c1ccc2ncnc(Nc3ccc(OCc4cccc(F)c4)c(Cl)c3)c2c1 [VIII-46] | 12 |  |  |  | 82 | 104
CC#C/C(=N\OC[C@H]1CN(C)CCN1)c1ccc2ncnc(Nc3ccc(OCc4ccccn4)c(Cl)c3)c2c1 [VIII-176] | 26 | 23 | 26 |  |  | 
CC#C/C(=N\OCCN1CC[C@@H](OC(N)=O)C1)c1ccc2ncnc(Nc3ccc(OCc4ccccn4)c(Cl)c3)c2c1 [VIII-151] | 47 | 20 | 19 |  |  | 
CC#C/C(=N\OCCN1CCC[C@@H]1CO)c1ccc2ncnc(Nc3ccc(OCc4cccc(F)c4)c(Cl)c3)c2c1 [VIII-69] | 16 |  |  |  | 43 | 28
CC#C/C(=N\OC[C@@H]1CCCN1C)c1ccc2ncnc(Nc3ccc(OCc4cccc(F)c4)c(Cl)c3)c2c1 [VIII-75] |  |  |  | 22 | 50 | 34
Fc1cccc(COc2ccc(Nc3ncnc4ccc(/C=N/OCCN5CCCC5)cc34)cc2Cl)c1 [Compound V-6] | 110 |  |  |  | 6.5 | 3.6
CC#CC(=NOCCNCC)c1ccc2ncnc(Nc3ccc(OCc4cccc(F)c4)c(Cl)c3)c2c1 [VIII-35] | 24 |  |  |  | 11 | 25
CC#C/C(=N\OCCNC1CCOCC1)c1ccc2ncnc(Nc3ccc(OCc4ccccn4)c(Cl)c3)c2c1 [VIII-141] | 46 | 10 | 7.9 |  |  | 
CC#C/C(=N\OCCN1CCC(NS(C)(=O)=O)CC1)c1ccc2ncnc(Nc3ccc(OCc4cccc(F)c4)c(Cl)c3)c2c1 [VIII-100] | 16 |  |  |  | 208 | 203
CC#C/C(=N\O[C@H]1CN[C@H](CO)C1)c1ccc2ncnc(Nc3ccc(OCc4ccccn4)c(Cl)c3)c2c1 [VIII-161] | 49 | 14 | 15 |  |  | 
CC#C/C(=N\OCCN)c1ccc2ncnc(Nc3ccc(OCc4cccc(F)c4)c(Cl)c3)c2c1 [VIII-42] |  |  |  | 24 | 10 | 11
CC#CC(=NOCCNCC(C)CO)c1ccc2ncnc(Nc3ccc(OCc4cccc(F)c4)c(Cl)c3)c2c1 (stereo not drawn) [VIII-62] |  |  |  | 12 | 22 | 22
CC#CC(=NOCC1CN(C)CCN1C)c1ccc2ncnc(Nc3ccc(OCc4cccc(F)c4)c(Cl)c3)c2c1 (stereo not drawn) [VIII-108] | 31 |  |  |  | 53 | 56
CC#C/C(=N\OCCNCCOC(N)=O)c1ccc2ncnc(Nc3ccc(OCc4ccccn4)c(Cl)c3)c2c1 [VIII-135] | 28 | 7.6 | 8.1 |  |  | 
CC#CC(=NOC[C@@H]1CNCCO1)c1ccc2ncnc(Nc3ccc(OCc4cccc(F)c4)c(Cl)c3)c2c1 [VIII-32, 4-(3-chloro-4-(3-fluorobenzyloxy)phenylamino)-6-(1-((S)-morpholin-2-ylmethoxyimino)-2-butyn-1-yl)quinazoline dihydrochloride] | 32 |  |  |  | 50 | 46

SMILES | IC50 (BT-474; Homo sapiens, BT-474, 72 h) [nM] | IC50 (EGFR; [1]) [nM] | IC50 (HER2; [1]) [nM] | IC50 (BT-474) [nM] | IC50 (EGFR; [2]) [nM] | IC50 (HER2; [3]) [nM]
CC#C/C(=N\OCC1COCCN1)c1ccc2ncnc(Nc3ccc(COc4cccc(F)c4)c(Cl)c3)c2c1 (stereo not drawn) [VIII-221] |  | 143 | 168 | 15 |  | 
CC#C/C(=N\OCCNC(C)COC)c1ccc2ncnc(Nc3ccc(OCc4ccccn4)c(Cl)c3)c2c1 (stereo not drawn) [VIII-130] | 50 | 8.1 | 5.2 |  |  | 
CC#CC(=NOCCN1CCOCC1)c1ccc2ncnc(Nc3ccc(OCc4cccc(F)c4)c(Cl)c3)c2c1 [VIII-10] | 27 |  |  |  | 409 | 484
CC#CC(=NOC1CNC(CO)C1)c1ccc2ncnc(Nc3ccc(OCc4cccc(F)c4)c(Cl)c3)c2c1 (stereo not drawn) [VIII-80] |  |  |  | 35 | 23 | 29
CC#C/C(=N\OCCNCCNS(C)(=O)=O)c1ccc2ncnc(Nc3ccc4c(cnn4Cc4cccc(F)c4)c3)c2c1 [VIII-185] | 12 | 6.8 | 12.5 |  |  | 
CC#C/C(=N\OCCNC[C@@H](C)CO)c1ccc2ncnc(Nc3ccc(OCc4ccccn4)c(Cl)c3)c2c1 [VIII-139] | 32 | 5 | 3.8 |  |  | 
CC#C/C(=N\OCC(N)=O)c1ccc2ncnc(Nc3ccc(OCc4cccc(F)c4)c(Cl)c3)c2c1 [VIII-223] | 6 | 253 | 217 |  |  | 
CC#C/C(=N\OCC(=O)NCCO)c1ccc2ncnc(Nc3ccc(OCc4cccc(F)c4)c(Cl)c3)c2c1 [VIII-224] | 1.2 | 122 | 118 |  |  | 
CC#C/C(=N\OC[C@H]1CCCN1C)c1ccc2ncnc(Nc3ccc(OCc4cccc(F)c4)c(Cl)c3)c2c1 [VIII-91] |  |  |  | 24 | 74 | 83
CC#C/C(=N\OCCN1CCC(NC(C)=O)CC1)c1ccc2ncnc(Nc3ccc(OCc4cccc(F)c4)c(Cl)c3)c2c1 [VIII-99] | 24 |  |  |  | 84 | 84
CC#C/C(=N\OCCNC1CCOCC1)c1ccc2ncnc(Nc3ccc(OCc4cccc(F)c4)c(Cl)c3)c2c1 [VIII-55] | 25 |  |  |  | 19 | 68
CC/C(=N\OCCNC)c1ccc2ncnc(Nc3ccc(OCc4cccc(F)c4)c(Cl)c3)c2c1 [VIII-20] | 37 |  |  |  | 29 | 31
CC#C/C(=N\OCCNC[C@@H]1COC(=O)N1)c1ccc2ncnc(Nc3ccc(OCc4cccc(F)c4)c(Cl)c3)c2c1 [VIII-59] |  |  |  | 11 | 115 | 278
CC#C/C(=N\OCCN1C[C@@H](C)O[C@@H](C)C1)c1ccc2ncnc(Nc3ccc(OCc4cccc(F)c4)c(Cl)c3)c2c1 [VIII-93] | 38 |  |  |  | 453 | 321
Fc1cccc(COc2ccc(Nc3ncnc4ccc(C(=NOCCN5CCOCC5)c5ccccc5)cc34)cc2Cl)c1 [VIII-13] | 64 |  |  |  | 300 | 888
CC#C/C(=N\OC[C@H]1NCCO[C@@H]1C)c1ccc2ncnc(Nc3ccc(OCc4cccc(F)c4)c(Cl)c3)c2c1 [VIII-107] |  |  |  | 23 | 150 | 135
CC#C/C(=N\OC[C@H]1CNCCO1)c1ccc2ncnc(Nc3ccc(OCc4ccccn4)c(Cl)c3)c2c1 [VIII-173] | 40 | 4.8 | 3.9 |  |  | 
CC#C/C(=N\OC[C@@H](COC)NC)c1ccc2ncnc(Nc3ccc(S(=O)(=O)c4ccccc4)cc3)c2c1 [VIII-205] | 31 | 17 | 13 |  |  | 
